Counter-ions that a name gives are not always drawn.
Experiments:
[1] = target: T1, Nav 1.7 (Homo sapiens (Human), UniProt Q15858); assay: Nav 1.7 IonWorks Quattro (IWQ) in vitro assay, population patch-clamp; format: cell-based; settings: 293 cells stably transfected with Nav 1.7; block at 26th pulse to −20 mV;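 note: cells held at −110 mV for 3 s, then 26 pulses of 150 ms at 5 Hz, leak-corrected peak current, percent block measured before and after compound, 3–8 min exposure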
Protocol: (§1) Nav 1.7 and Nav 1.5 Ion Works Quattro (IWQ) In Vitro Assays
(§2) 293 cells stably transfected with either Nav 1.7 or with Nav 1.5 were recorded in population patch-clamp mode with the IonWorks® Quattro automated electrophysiology system in accordance with the manufacturer's specifications (Molecular Devices, LLC, Sunnyvale, Calif.). Sodium channel currents were measured in response to a train of depolarizations that induced successively greater inactivation.
(§3) Cells were held at −110 mV for three seconds (Nav 1.7) or half a second (Nav 1.5) from a holding voltage of −15 mV, then put through a series of 26 pulses of 150 msec duration to −20 mV at a frequency of 5 Hz. Cells were then left unclamped for a period of 3 to 8 minutes while a single concentration of test compound was added. Cells were then reclamped and put through the same voltage protocol. Current at the end of the 26th pulse to −20 mV was subtracted from the peak current evoked by the 26th pulse to −20 mV to correct for leak current. Percent block was calculated for each concentration in duplicate, and IC50 curves were fitted to percent block as a function of concentration.

[2] = target: T1, Nav 1.7; assay: Nav 1.7 in vitro PatchExpress (PX) assay, whole cell voltage clamp; format: cell-based; settings: 293 cells stably transfected with human Nav1.7; partially inactivated state (20 to 50% inactivation)
Protocol: Nav 1.7 In Vitro PatchExpress (PX) Assay
293 cells stably transfected with human Nav1.7 were recorded in whole cell voltage clamp mode with the PatchXpress automated electrophysiology system (Molecular Devices, LLC, Sunnyvale, Calif.). Compound effects were measured on a partially inactivated state of the sodium channel. Cells were clamped to a holding potential yielding 20 to 50% inactivation. To elicit sodium current, channels were activated by pulsing to −10 mV for 20 msec. This voltage protocol was repeated at a rate of 0.1 Hz throughout the experiment. A single concentration of test compound was applied to cells for a duration of 3 minutes. Peak sodium current was measured at the end of the compound addition period to determine percent inhibition.

[3] = target: Nav 1.5 (Homo sapiens (Human), UniProt Q14524); assay: cell-based;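 note: HEK293 cells stably expressing Nav1.5, sodium current at the 26th of 26 pulses to −20 mV (150 ms, 5 Hz) after compound versus before, leak-corrected, 3–8 min exposure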
Sequence of Nav 1.5 (Q14524 whole entry): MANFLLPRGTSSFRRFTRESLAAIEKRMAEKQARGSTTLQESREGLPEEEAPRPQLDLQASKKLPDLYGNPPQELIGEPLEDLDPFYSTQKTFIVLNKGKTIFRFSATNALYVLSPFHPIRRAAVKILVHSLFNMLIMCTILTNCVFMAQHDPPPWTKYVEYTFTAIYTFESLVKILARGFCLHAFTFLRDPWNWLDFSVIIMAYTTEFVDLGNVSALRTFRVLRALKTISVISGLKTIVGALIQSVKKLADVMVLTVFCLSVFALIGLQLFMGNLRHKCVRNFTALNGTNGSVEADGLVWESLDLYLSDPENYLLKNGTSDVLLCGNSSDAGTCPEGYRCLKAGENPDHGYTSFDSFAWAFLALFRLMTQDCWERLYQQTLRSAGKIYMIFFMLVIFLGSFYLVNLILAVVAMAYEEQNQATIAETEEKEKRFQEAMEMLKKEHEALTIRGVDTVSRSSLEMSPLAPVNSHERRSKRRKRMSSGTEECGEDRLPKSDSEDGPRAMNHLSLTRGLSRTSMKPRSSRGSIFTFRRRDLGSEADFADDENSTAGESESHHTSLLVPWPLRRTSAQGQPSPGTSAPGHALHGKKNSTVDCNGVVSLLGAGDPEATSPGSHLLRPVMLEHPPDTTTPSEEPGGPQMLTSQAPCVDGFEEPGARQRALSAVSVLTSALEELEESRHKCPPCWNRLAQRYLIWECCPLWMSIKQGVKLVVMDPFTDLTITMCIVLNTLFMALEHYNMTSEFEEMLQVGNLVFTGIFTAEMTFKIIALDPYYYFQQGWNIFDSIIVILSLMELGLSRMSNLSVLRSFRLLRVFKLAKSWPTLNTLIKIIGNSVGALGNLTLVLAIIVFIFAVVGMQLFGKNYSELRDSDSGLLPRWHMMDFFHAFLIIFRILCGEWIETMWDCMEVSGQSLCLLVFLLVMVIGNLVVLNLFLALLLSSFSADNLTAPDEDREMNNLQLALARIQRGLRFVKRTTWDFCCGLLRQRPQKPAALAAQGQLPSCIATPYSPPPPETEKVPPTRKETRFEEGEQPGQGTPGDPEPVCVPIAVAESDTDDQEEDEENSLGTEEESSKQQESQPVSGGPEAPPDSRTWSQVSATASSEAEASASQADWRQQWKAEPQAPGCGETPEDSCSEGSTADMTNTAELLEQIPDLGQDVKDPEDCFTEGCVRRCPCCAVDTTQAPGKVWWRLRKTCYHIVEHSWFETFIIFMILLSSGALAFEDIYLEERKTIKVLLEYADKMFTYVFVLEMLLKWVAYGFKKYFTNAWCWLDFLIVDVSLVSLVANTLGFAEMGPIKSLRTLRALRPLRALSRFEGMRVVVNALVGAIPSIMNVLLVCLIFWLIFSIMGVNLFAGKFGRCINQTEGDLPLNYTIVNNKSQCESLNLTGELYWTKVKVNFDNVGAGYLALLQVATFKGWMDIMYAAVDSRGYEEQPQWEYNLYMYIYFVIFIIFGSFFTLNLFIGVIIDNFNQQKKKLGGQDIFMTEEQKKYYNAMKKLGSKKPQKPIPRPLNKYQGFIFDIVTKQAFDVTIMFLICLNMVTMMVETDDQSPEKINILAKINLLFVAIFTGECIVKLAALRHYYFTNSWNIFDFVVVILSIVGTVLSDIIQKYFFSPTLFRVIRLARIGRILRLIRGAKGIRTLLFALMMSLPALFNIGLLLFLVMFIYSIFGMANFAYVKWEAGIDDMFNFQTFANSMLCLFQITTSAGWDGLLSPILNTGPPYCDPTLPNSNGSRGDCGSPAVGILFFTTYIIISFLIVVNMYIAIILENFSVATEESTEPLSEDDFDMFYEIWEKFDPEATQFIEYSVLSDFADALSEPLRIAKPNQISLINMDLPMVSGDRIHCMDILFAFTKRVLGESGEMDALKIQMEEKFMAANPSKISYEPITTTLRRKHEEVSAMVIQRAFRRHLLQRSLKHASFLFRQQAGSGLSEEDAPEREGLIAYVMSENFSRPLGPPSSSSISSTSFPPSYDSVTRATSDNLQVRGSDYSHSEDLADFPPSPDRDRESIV
Protocol: as §1, §2, §3

T1 sequence (Q15858 whole entry): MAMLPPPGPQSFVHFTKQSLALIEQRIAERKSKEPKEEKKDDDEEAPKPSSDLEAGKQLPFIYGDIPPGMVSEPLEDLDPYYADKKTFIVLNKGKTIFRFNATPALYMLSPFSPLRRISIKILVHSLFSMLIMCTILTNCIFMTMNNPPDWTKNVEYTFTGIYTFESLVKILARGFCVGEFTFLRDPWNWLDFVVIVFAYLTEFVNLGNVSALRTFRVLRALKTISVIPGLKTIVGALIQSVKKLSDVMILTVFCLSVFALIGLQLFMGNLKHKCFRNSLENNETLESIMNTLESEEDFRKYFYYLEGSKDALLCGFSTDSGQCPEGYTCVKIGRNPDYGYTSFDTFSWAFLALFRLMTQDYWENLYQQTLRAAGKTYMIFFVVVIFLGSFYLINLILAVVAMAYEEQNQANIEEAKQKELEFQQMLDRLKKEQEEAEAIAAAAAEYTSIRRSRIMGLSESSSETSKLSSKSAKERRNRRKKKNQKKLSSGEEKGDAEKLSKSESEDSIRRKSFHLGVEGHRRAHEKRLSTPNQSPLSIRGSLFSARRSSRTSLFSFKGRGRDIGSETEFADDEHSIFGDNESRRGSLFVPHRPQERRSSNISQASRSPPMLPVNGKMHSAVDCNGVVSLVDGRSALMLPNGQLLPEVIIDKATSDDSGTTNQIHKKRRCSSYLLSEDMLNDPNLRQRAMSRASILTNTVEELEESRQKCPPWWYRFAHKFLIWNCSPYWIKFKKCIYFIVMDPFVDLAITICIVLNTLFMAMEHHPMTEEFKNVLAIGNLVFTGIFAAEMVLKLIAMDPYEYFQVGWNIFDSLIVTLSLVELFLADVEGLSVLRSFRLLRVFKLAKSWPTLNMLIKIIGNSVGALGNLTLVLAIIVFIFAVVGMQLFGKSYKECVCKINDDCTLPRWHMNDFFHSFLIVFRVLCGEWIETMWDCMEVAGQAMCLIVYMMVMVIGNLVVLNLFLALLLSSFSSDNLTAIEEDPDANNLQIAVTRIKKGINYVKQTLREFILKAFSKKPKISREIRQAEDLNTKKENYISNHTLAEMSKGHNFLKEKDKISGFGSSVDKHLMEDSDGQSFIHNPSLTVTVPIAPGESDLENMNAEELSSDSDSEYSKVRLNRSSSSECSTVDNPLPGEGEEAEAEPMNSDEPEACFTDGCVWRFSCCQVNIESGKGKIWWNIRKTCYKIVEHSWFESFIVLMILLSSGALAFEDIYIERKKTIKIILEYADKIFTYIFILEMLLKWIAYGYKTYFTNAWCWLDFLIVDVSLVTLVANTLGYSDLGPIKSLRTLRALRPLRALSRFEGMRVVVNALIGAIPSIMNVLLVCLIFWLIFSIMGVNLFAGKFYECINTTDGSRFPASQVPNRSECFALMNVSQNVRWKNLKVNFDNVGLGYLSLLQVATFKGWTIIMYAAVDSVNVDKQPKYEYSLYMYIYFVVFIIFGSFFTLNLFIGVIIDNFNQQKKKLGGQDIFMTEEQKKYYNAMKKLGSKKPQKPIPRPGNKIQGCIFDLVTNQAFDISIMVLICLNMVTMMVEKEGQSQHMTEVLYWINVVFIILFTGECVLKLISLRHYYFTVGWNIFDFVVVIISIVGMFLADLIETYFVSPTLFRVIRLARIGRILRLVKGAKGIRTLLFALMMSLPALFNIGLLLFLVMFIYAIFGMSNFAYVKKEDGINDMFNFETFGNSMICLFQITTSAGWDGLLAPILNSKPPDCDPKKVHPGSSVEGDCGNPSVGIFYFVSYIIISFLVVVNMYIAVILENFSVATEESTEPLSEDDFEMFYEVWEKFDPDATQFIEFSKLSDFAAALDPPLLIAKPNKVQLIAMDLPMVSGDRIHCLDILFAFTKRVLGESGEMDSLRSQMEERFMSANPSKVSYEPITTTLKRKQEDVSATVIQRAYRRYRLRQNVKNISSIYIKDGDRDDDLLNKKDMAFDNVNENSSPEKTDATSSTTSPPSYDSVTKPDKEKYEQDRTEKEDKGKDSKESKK

COc1cc(C(F)(F)F)ccc1-c1cccc2c1C(C)CN(S(=O)(=O)Nc1ncns1)C2 (racemic) [Example 48, 5-(2-Methoxy-4-(trifluoromethyl)phenyl)-4-methyl-N-(1,2,4-thiadiazol-5-yl)-3,4-dihydroisoquinoline-2(1H)-sulfonamide]
IC50 [1]: 4100 nM
IC50 [2]: 6110 nM
IC50 [3]: 7.26 µM

Cn1nccc1-c1cc(C(F)(F)F)ccc1-c1cccc2c1CCN(S(=O)(=O)Nc1ncns1)C2 [Example 1, 5-(2-(1-Methyl-1H-pyrazol-5-yl)-4-(trifluoromethyl)phenyl)-N-(1,2,4-thiadiazol-5-yl)-3,4-dihydroisoquinoline-2(1H)-sulfonamide]
IC50 [1]: 36.3 nM
IC50 [2]: 120 nM
IC50 [3]: > 10 µM

O=S(=O)(Nc1ncns1)N1CCc2c(cccc2-c2ccc(C(F)(F)F)cc2-c2ccncc2)C1 [Example 2, 5-(2-(Pyridin-4-yl)-4-(trifluoromethyl)phenyl)-N-(1,2,4-thiadiazol-5-yl)-3,4-dihydroisoquinoline-2(1H)-sulfonamide]
IC50 [1]: 217 nM
IC50 [2]: 640 nM
IC50 [3]: > 10 µM

Cn1nccc1-c1cc(C(F)(F)F)ccc1-c1cccc2c1CCN(S(=O)(=O)Nc1nccs1)C2 [Example 3, 5-(2-(1-methyl-1H-pyrazol-5-yl)-4-(trifluoromethyl)phenyl)-N-(thiazol-2-yl)-3,4-dihydroisoquinoline-2(1H)-sulfonamide]
IC50 [1]: 414 nM
IC50 [2]: 2010 nM
IC50 [3]: > 10 µM

O=S(=O)(Nc1ncns1)N1CCc2c(cccc2-c2ccc(C(F)(F)F)cc2Br)C1 [Example 4, 5-(2-Bromo-4-(trifluoromethyl)phenyl)-N-(1,2,4-thiadiazol-5-yl)-3,4-dihydroisoquinoline-2(1H)-sulfonamide]
IC50 [1]: 527 nM
IC50 [2]: 560 nM
IC50 [3]: > 10 µM

O=S(=O)(Nc1ncns1)N1CCc2c(cccc2-c2ccc(C(F)(F)F)cc2)C1 [Example 7, N-(1,2,4-Thiadiazol-5-yl)-5-(4-(trifluoromethyl)phenyl)-3,4-dihydroisoquinoline-2(1H)-sulfonamide]
IC50 [1]: 1640 nM
IC50 [2]: 5800 nM
IC50 [3]: > 10 µM

O=S(=O)(Nc1ncns1)N1CCc2c(cccc2-c2ccc(C(F)(F)F)cc2F)C1 [Example 8, 5-(2-Fluoro-4-(trifluoromethyl)phenyl)-N-(1,2,4-thiadiazol-5-yl)-3,4-dihydroisoquinoline-2(1H)-sulfonamide]
IC50 [1]: 1840 nM
IC50 [2]: 3130 nM
IC50 [3]: > 10 µM

O=S(=O)(Nc1ncns1)N1CCc2c(cccc2-c2ccc(C(F)(F)F)cc2Cl)C1 [Example 9, 5-(2-Chloro-4-(trifluoromethyl)phenyl)-N-(1,2,4-thiadiazol-5-yl)-3,4-dihydroisoquinoline-2(1H)-sulfonamide]
IC50 [1]: 477 nM
IC50 [2]: 610 nM
IC50 [3]: > 10 µM

O=S(=O)(Nc1ncns1)N1CCc2c(cccc2-c2ccc(Cl)cc2)C1 [Example 10]
IC50 [1]: 5470 nM
IC50 [2]: 7460 nM
IC50 [3]: > 10 µM

O=S(=O)(Nc1ncns1)N1CCc2c(cccc2-c2ccc(Cl)cc2Cl)C1 [Example 12, 5-(2,4-Dichlorophenyl)-N-(1,2,4-thiadiazol-5-yl)-3,4-dihydroisoquinoline-2(1H)-sulfonamide]
IC50 [1]: 2410 nM
IC50 [2]: 1330 nM
IC50 [3]: > 10 µM

O=S(=O)(Nc1ncns1)N1CCc2c(cccc2-c2cccc3c2CCNC3)C1 [Example 13, N-(1,2,4-Thiadiazol-5-yl)-1′,2′,3,3′,4,4′-hexahydro-[5,5′-biisoquinoline]-2(1H)-sulfonamide hydrochloride]
IC50 [1]: 3870 nM
IC50 [2]: > 30000 nM
IC50 [3]: > 10 µM

C[N+]1(C)CC=C(c2cc(C(F)(F)F)ccc2-c2cccc3c2CCN(S(=O)(=O)Nc2ncns2)C3)CC1 [Example 14, 4-(2-(2-(N-(1,2,4-Thiadiazol-5-yl)sulfamoyl)-1,2,3,4-tetrahydroisoquinolin-5-yl)-5-(trifluoromethyl)phenyl)-1,1-dimethyl-1,2,3,6-tetrahydropyridin-1-ium hydroxide]
IC50 [1]: 684 nM
IC50 [2]: 3530 nM
IC50 [3]: > 10 µM

CN1CC=C(c2cc(C(F)(F)F)ccc2-c2cccc3c2CCN(S(=O)(=O)Nc2ncns2)C3)CC1 [Example 15, 5-(2-(1-Methyl-1,2,3,6-tetrahydropyridin-4-yl)-4-(trifluoromethyl)phenyl)-N-(1,2,4-thiadiazol-5-yl)-3,4-dihydroisoquinoline-2(1H)-sulfonamide]
IC50 [1]: 78.3 nM
IC50 [2]: 90 nM
IC50 [3]: > 10 µM

Cn1cc(-c2cc(C(F)(F)F)ccc2-c2cccc3c2CCN(S(=O)(=O)Nc2ncns2)C3)cn1 [Example 16, 5-(2-(1-Methyl-1H-pyrazol-4-yl)-4-(trifluoromethyl)phenyl)-N-(1,2,4-thiadiazol-5-yl)-3,4-dihydroisoquinoline-2(1H)-sulfonamide]
IC50 [1]: 2660 nM
IC50 [2]: 5420 nM
IC50 [3]: > 10 µM

O=S(=O)(Nc1ncns1)N1CCc2c(cccc2-c2ccc(C(F)(F)F)cc2-c2cn[nH]c2)C1 [Example 17, 5-(2-(1H-Pyrazol-4-yl)-4-(trifluoromethyl)phenyl)-N-(1,2,4-thiadiazol-5-yl)-3,4-dihydroisoquinoline-2(1H)-sulfonamide]
IC50 [1]: 157 nM
IC50 [2]: 350 nM
IC50 [3]: > 10 µM

Nc1cc(-c2cc(C(F)(F)F)ccc2-c2cccc3c2CCN(S(=O)(=O)Nc2ncns2)C3)ccn1 [Example 18, 5-(2-(2-Aminopyridin-4-yl)-4-(trifluoromethyl)phenyl)-N-(1,2,4-thiadiazol-5-yl)-3,4-dihydroisoquinoline-2(1H)-sulfonamide]
IC50 [1]: 45.3 nM
IC50 [2]: 70 nM
IC50 [3]: > 10 µM

COc1cncc(-c2cc(C(F)(F)F)ccc2-c2cccc3c2CCN(S(=O)(=O)Nc2ncns2)C3)c1 [Example 20, 5-(2-(5-Methoxypyridin-3-yl)-4-(trifluoromethyl)phenyl)-N-(1,2,4-thiadiazol-5-yl)-3,4-dihydroisoquinoline-2(1H)-sulfonamide]
IC50 [1]: 5830 nM
IC50 [3]: > 10 µM

Cc1cncc(-c2cc(C(F)(F)F)ccc2-c2cccc3c2CCN(S(=O)(=O)Nc2ncns2)C3)c1 [Example 21, 5-(2-(5-Methylpyridin-3-yl)-4-(trifluoromethyl)phenyl)-N-(1,2,4-thiadiazol-5-yl)-3,4-dihydroisoquinoline-2(1H)-sulfonamide]
IC50 [1]: 1800 nM
IC50 [3]: 4.08 µM

O=S(=O)(Nc1ncns1)N1CCc2c(cccc2-c2cncc3ccccc23)C1 [Example 25, N-(1,2,4-Thiadiazol-5-yl)-3′,4′-dihydro-[4,5′-biisoquinoline]-2′(1′H)-sulfonamide]
IC50 [1]: 6900 nM
IC50 [3]: > 10 µM

COc1ncccc1-c1cccc2c1CCN(S(=O)(=O)Nc1ncns1)C2 [Example 50, 5-(2-Methoxypyridin-3-yl)-N-(1,2,4-thiadiazol-5-yl)-3,4-dihydroisoquinoline-2(1H)-sulfonamide]
IC50 [1]: 7600 nM
IC50 [3]: > 10 µM

O=S(=O)(Nc1ncns1)N1CCc2c(cccc2-c2cccc3[nH]ncc23)C1 [Example 51, 5-(1H-Indazol-4-yl)-N-(1,2,4-thiadiazol-5-yl)-3,4-dihydroisoquinoline-2(1H)-sulfonamide]
IC50 [1]: 19100 nM
IC50 [3]: > 10 µM

CN1CC=C(c2cc(Cl)cc(F)c2-c2cccc3c2CCN(S(=O)(=O)Nc2ncc(F)s2)C3)CC1 [Example 54, 5-(4-Chloro-2-fluoro-6-(1-methyl-1,2,3,6-tetrahydropyridin-4-yl)phenyl)-N-(5-fluorothiazol-2-yl)-3,4-dihydroisoquinoline-2(1H)-sulfonamide]
IC50 [1]: 14900 nM
IC50 [3]: > 10 µM

COc1cc(C(F)(F)F)ccc1-c1cccc2c1CN(S(=O)(=O)Nc1ncns1)CC2 [Example 55, 8-(2-Methoxy-4-(trifluoromethyl)phenyl)-N-(1,2,4-thiadiazol-5-yl)-3,4-dihydroisoquinoline-2(1H)-sulfonamide]
IC50 [1]: 9440 nM
IC50 [3]: > 10 µM

CC(C)(C)OC(=O)N1CC=C(c2cccc3c2CCN(S(=O)(=O)Nc2ncns2)C3)CC1 [Example 57, tert-Butyl 4-(2-(N-(1,2,4-thiadiazol-5-yl)sulfamoyl)-1,2,3,4-tetrahydroisoquinolin-5-yl)-5,6-dihydropyridine-1(2H)-carboxylate]
IC50 [1]: 7100 nM
IC50 [3]: > 10 µM

COc1cc(C(F)(F)F)ccc1-c1ncnc2c1CCN(S(=O)(=O)Nc1ncc(F)s1)C2 [Example 60, N-(5-fluorothiazol-2-yl)-4-(2-methoxy-4-(trifluoromethyl)phenyl)-5,6-dihydropyrido[3,4-d]pyrimidine-7(8H)-sulfonamide]
IC50 [2]: 810 nM

COc1cc(-c2ccc(F)c(F)c2)ccc1-c1cccc2c1CCN(S(=O)(=O)Nc1nncs1)C2 [Example 62, 5-(3′,4′-difluoro-3-methoxy-[1,1′-biphenyl]-4-yl)-N-(1,3,4-thiadiazol-2-yl)-3,4-dihydroisoquinoline-2(1H)-sulfonamide]
IC50 [2]: 8050 nM

COc1ccc(-c2ccc(F)c(F)c2)cc1-c1cccc2c1CCN(S(=O)(=O)Nc1nncs1)C2 [Example 63, 5-(3′,4′-difluoro-4-methoxy-[1,1′-biphenyl]-3-yl)-N-(1,3,4-thiadiazol-2-yl)-3,4-dihydroisoquinoline-2(1H)-sulfonamide]
IC50 [2]: 11200 nM

COc1cc(C(F)(F)F)ccc1-c1ccnc2c1CCN(S(=O)(=O)Nc1ccncn1)C2 [Example 64, 4-(2-methoxy-4-(trifluoromethyl)phenyl)-N-4-pyrimidinyl-5,8-dihydro-1,7-naphthyridine-7(6H)-sulfonamide]
IC50 [2]: 6190 nM

Reference: US9051311B2, “Sulfamide sodium channel inhibitors” (AMGEN INC., priority 2012, dated 2015)
